# Test results reported in publication PMC2765658 (Chemical communications (Cambridge, England), 2009).
# Square brackets hold non-standard residues; d marks the D form. Peptide text beside a SMILES is read from it. Aib = CC(C)(N)C(=O)O
# Assay: Thermal melting followed by CD ellipticity
# Format: physicochemical
# Conditions: CD ellipticity followed over 20 - 85 °C; 100 μM peptide in 20% TFE/H2O
smiles,measurement,value
"CC(=O)NCCCC[C@H](NC(=O)[C@@H](NC(C)=O)C(C)C)C(=O)N[C@@H](CC(C)C)C(=O)NC(C)(C)C(=O)N[C@H](C(=O)N[C@@H](CCCCNC(C)=O)C(=O)N[C@@H](CC(C)C)C(N)=O)C(C)C [compound 17, Ac-Val-Lys(Ac)-Leu-Aib-Val-Lys(Ac)-Leu-NH2] (Ac-VK(Ac)L[Aib]VK(Ac)L-NH2)",thermal melting point (Tm),48 °C
